Tests used:
[1] = target: T1, K-Ras WT (Homo sapiens, UniProt P01116); experiment: HTRF resonance energy transfer assay, K-Ras WT / SOS1 interaction; type: biochemical; details: HTRF assay of Example 5; read-out: IC50 against K-Ras WT
T1 construct: made in house; host or cells: E. coli BL21 (DE3)
In short: (§1)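 Read-out: HTRF 665/620 nm ratio (excitation 337 nm) after roughly 10 min or longer incubation, used to derive IC50. Donor anti-GST-Eu on GST-K-Ras; acceptor anti-6His-XL665 on His-hSOS1. Duplicate dose series from 10 μM down to 0.01 μM.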

[2] = target: T2, K-Ras G12S (Homo sapiens, UniProt P01116, G12S); experiment: HTRF resonance energy transfer assay, K-Ras G12S / SOS1 interaction; type: biochemical; details: HTRF assay of Example 5; read-out: IC50 against K-Ras G12S
T2 construct: made in house; host or cells: E. coli BL21 (DE3)
In short: as §1

[3] = system: SW620 cells; experiment: Ras cellular assay, growth of cells with K-Ras G12V mutation (CellTiter-Glo); type: cell-based; details: Homo sapiens, SW-620; cell growth, Example 9, G12V mutation; read-out: IC50 against SW620 cells
In short: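 SW620 (K-Ras G12V) cells, e.g. 800/well in RPMI-1640 with 10% heat-inactivated FBS on standard or ultra-low attachment plates, were dosed the day after plating with e.g. a 10-point 3-fold series. Viability by CellTiter-Glo luminescence about 6 days later; IC50 from four-parameter fit.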

[4] = target: T3, K-Ras G12V (Homo sapiens, UniProt P01116, G12V); experiment: HTRF resonance energy transfer assay, K-Ras G12V / SOS1 interaction; type: biochemical; details: HTRF assay of Example 5; read-out: IC50 against K-Ras G12V
T3 construct: made in house; host or cells: E. coli BL21 (DE3)
In short: as §1

[5] = system: A549 cells; experiment: Ras cellular assay, growth of cells with K-Ras G12S mutation (CellTiter-Glo); type: cell-based; details: Homo sapiens, cell growth, Example 9, G12S mutation, read-out: IC50 against A549 cells
Procedure: For example, this assay can be also used to assess a selective growth inhibition of a mutant Ras protein relative to a wildtype, or relative to a different mutant Ras protein.
A549 (ATCC CCL-185) and LS123 (ATCC CCL-255) cell lines comprise a G12S mutation and can be used to assess Ras cellular signaling in vitro, e.g., in response to the compounds herein. A549 culture medium is prepared with RPMI-1640 and 10% heat-inactivated FBS. LS123 culture medium is prepared with RPMI-1640 and 10% heat-inactivated FBS. A CellTiter-Glo (CTG) luminescent based assay (Promega) is used to assess growth of the cells, as a measurement of the ability of the compounds herein to inhibit Ras signaling in the cells. The cells (e.g., 800 per well) are seeded in their respective culture medium in standard tissue culture-treated 384-well format plates (Falcon #08-772-116) or ultra-low attachment surface 384-well format plates (S-Bio #MS-9384WZ). The day after plating, cells are treated with a dilution series (e.g., a 10 point 3-fold dilution series) of the compounds herein (e.g., approximately 40 μL final volume per well). Cell viability can be monitored (e.g., approximately 6 days later) according to the manufacturer's recommended instructions, where the CellTiter-Glo reagent is added (e.g., approximately 10 μL), vigorously mixed, covered, and placed on a plate shaker (e.g., approximately for 20 min) to ensure sufficient cell lysis prior to assessment of luminescent signal. The IC50 values are determined using the four parameter fit. The resulting IC50 value is a measurement of the ability of the compounds herein to reduce cell growth of Ras-driven cells (e.g., tumor cell lines) in vitro and/or in vivo.

[6] = target: T4, K-Ras G12D (Homo sapiens, UniProt P01116, G12D); experiment: HTRF resonance energy transfer assay, K-Ras G12D / SOS1 interaction; type: biochemical; details: HTRF assay of Example 5; read-out: IC50 against K-Ras G12D
T4 construct: made in house; host or cells: E. coli BL21 (DE3)
In short: as §1

T4 sequence (P01116 1-188 isoform P01116-2 G12D): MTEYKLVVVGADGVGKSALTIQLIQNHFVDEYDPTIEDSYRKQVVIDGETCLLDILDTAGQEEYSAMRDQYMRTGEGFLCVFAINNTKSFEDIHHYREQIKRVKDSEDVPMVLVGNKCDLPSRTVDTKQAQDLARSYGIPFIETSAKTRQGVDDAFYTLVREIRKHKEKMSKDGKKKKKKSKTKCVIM
T2 sequence (P01116 1-188 isoform P01116-2 G12S): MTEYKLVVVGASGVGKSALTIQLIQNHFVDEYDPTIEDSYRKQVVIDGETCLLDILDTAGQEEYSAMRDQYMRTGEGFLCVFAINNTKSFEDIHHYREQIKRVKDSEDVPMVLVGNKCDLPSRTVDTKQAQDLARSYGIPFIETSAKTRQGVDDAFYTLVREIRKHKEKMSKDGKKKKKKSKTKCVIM
T3 sequence (P01116 1-188 isoform P01116-2 G12V): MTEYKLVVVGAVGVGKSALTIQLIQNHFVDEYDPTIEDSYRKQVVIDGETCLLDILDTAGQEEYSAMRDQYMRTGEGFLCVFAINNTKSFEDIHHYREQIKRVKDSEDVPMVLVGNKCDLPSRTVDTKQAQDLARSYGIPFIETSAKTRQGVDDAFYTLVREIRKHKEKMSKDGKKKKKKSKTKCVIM
T1 sequence (P01116 1-188 isoform P01116-2): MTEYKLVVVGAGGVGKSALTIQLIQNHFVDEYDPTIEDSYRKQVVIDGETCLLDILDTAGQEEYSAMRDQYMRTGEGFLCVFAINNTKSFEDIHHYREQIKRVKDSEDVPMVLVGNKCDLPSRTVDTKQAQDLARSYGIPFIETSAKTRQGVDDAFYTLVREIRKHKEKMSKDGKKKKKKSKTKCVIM

| SMILES | IC50 [1] | IC50 [2] | IC50 [3] | IC50 [4] | IC50 [5] | IC50 [6] |
| --- | --- | --- | --- | --- | --- | --- |
| N#Cc1c(N)sc2c(F)ccc(-c3c(Cl)c4c5c(nc(OC[C@@]67CCCN6C[C@H](F)C7)nc5c3F)N(C3CCC(COC(F)F)C3)CCO4)c12 (stereo partly drawn) [Compound 933, 2-amino-4-(8-chloro-4-(3-((difluoromethoxy)methyl)cyclopentyl)-10-fluoro-2-(((2R,7aS)-2-fluorotetrahydro-1H-pyrrolizin-7a(5H)-yl)methoxy)-5,6-dihydro-4H-[1,4]oxazepino[5,6,7-de]quinazolin-9-yl)-7-fluorobenzo[b]thiophene-3-carbonitrile] | < 100 nM | < 100 nM | < 5000 nM | < 100 nM | < 5000 nM |  |
| C[C@H](Oc1nc2c3c(c(Cl)c(-c4ccc(F)c5sc(N)c(C#N)c45)c(F)c3n1)OCCN2C1CCOCC1)[C@@H]1CCCN1C [Compound 904, 2-amino-4-(8-chloro-10-fluoro-2-((S)-1-((S)-1-methylpyrrolidin-2-yl)ethoxy)-4-(tetrahydro-2H-pyran-4-yl)-5,6-dihydro-4H-[1,4]oxazepino[5,6,7-de]quinazolin-9-yl)-7-fluorobenzo[b]thiophene-3-carbonitrile] | < 100 nM | < 100 nM | < 5000 nM | < 100 nM | < 5000 nM |  |
| C[C@H](Oc1nc2c3c(c(Cl)c(-c4ccc(F)c5sc(N)c(C#N)c45)c(F)c3n1)OCCN2[C@@H]1CCN(C(=O)C(F)F)C1)[C@@H]1CCCN1C [Compound 946, 2-amino-4-(8-chloro-4-((R)-1-(2,2-difluoroacetyl)pyrrolidin-3-yl)-10-fluoro-2-((S)-1-((S)-1-methylpyrrolidin-2-yl)ethoxy)-5,6-dihydro-4H-[1,4]oxazepino[5,6,7-de]quinazolin-9-yl)-7-fluorobenzo[b]thiophene-3-carbonitrile] | < 100 nM | < 100 nM |  | < 100 nM | < 5000 nM | < 100 nM |
| N#Cc1c(N)sc2c(F)ccc(-c3c(Cl)c4c5c(nc(OC[C@@]67CCCN6C[C@H](F)C7)nc5c3F)N(C3CCOC3)[C@@H](C(F)F)CO4)c12 (stereo partly drawn) [Compound 855, 2-amino-4-((5R)-8-chloro-5-(difluoromethyl)-10-fluoro-2-(((2R,7aS)-2-fluorotetrahydro-1H-pyrrolizin-7a(5H)-yl)methoxy)-4-(tetrahydrofuran-3-yl)-5,6-dihydro-4H-[1,4]oxazepino[5,6,7-de]quinazolin-9-yl)-7-fluorobenzo[b]thiophene-3-carbonitrile] |  | < 100 nM |  | < 100 nM | < 5000 nM |  |
| N#Cc1c(N)sc2c(F)ccc(-c3c(Cl)c4c5c(nc(OC[C@@]67CCCN6C[C@H](F)C7)nc5c3F)N(C3C5CNC3C5)CCO4)c12 (stereo partly drawn) [Compound 991, 4-(4-(2-azabicyclo[2.1.1]hexan-5-yl)-8-chloro-10-fluoro-2-(((2R,7aS)-2-fluorotetrahydro-1H-pyrrolizin-7a(5H)-yl)methoxy)-5,6-dihydro-4H-[1,4]oxazepino[5,6,7-de]quinazolin-9-yl)-2-amino-7-fluorobenzo[b]thiophene-3-carbonitrile] | < 100 nM | < 100 nM |  | < 100 nM | < 5000 nM | < 100 nM |
| N#Cc1c(N)sc2c(F)ccc(-c3c(Cl)c4c5c(nc(OC[C@@]67CCCN6C[C@H](F)C7)nc5c3F)N(C3CC5(CCNC5)C3)CCO4)c12 (stereo partly drawn) [Compound 1112, 2-amino-4-(8-chloro-10-fluoro-2-(((2R,7aS)-2-fluorotetrahydro-1H-pyrrolizin-7a(5H)-yl)methoxy)-4-(6-azaspiro[3.4]octan-2-yl)-5,6-dihydro-4H-[1,4]oxazepino[5,6,7-de]quinazolin-9-yl)-7-fluorobenzo[b]thiophene-3-carbonitrile] | < 100 nM | < 100 nM |  | < 100 nM | < 5000 nM | < 100 nM |
| N#Cc1c(N)sc2c(F)ccc(-c3c(Cl)c4c5c(nc(OC[C@@]67CCCN6C[C@H](F)C7)nc5c3F)N(C3CCCCC(O)C3)CCO4)c12 (stereo partly drawn) [Compound 825, 2-amino-4-(8-chloro-10-fluoro-2-(((2R,7aS)-2-fluorotetrahydro-1H-pyrrolizin-7a(5H)-yl)methoxy)-4-(3-hydroxycycloheptyl)-5,6-dihydro-4H-[1,4]oxazepino[5,6,7-de]quinazolin-9-yl)-7-fluorobenzo[b]thiophene-3-carbonitrile] |  |  |  |  | < 5000 nM |  |
| N#Cc1c(N)sc2c(F)ccc(-c3c(Cl)c4c5c(nc(OC[C@@]67CCCN6C[C@H](F)C7)nc5c3F)N(C3COC5(CNC5)C3)CCO4)c12 (stereo partly drawn) [Compound 1093, 2-amino-4-(8-chloro-10-fluoro-2-(((2R,7aS)-2-fluorotetrahydro-1H-pyrrolizin-7a(5H)-yl)methoxy)-4-(5-oxa-2-azaspiro[3.4]octan-7-yl)-5,6-dihydro-4H-[1,4]oxazepino[5,6,7-de]quinazolin-9-yl)-7-fluorobenzo[b]thiophene-3-carbonitrile] | < 100 nM | < 100 nM |  | < 100 nM | < 5000 nM | < 100 nM |
| N#Cc1c(N)sc2c(F)ccc(-c3c(Cl)c4c5c(nc(OC[C@@]67CCCN6C[C@H](F)C7)nc5c3F)N(CC(F)F)CCO4)c12 [Compound 827, 2-amino-4-(8-chloro-4-(2,2-difluoroethyl)-10-fluoro-2-(((2R,7aS)-2-fluorotetrahydro-1H-pyrrolizin-7a(5H)-yl)methoxy)-5,6-dihydro-4H-[1,4]oxazepino[5,6,7-de]quinazolin-9-yl)-7-fluorobenzo[b]thiophene-3-carbonitrile] |  |  |  |  | < 5000 nM |  |

Now from value to compound:

| IC50 [1] | IC50 [2] | IC50 [3] | IC50 [4] | IC50 [5] | IC50 [6] | SMILES |
| --- | --- | --- | --- | --- | --- | --- |
|  |  |  |  | < 5000 nM |  | C[C@H]1COc2c(Cl)c(-c3ccc(F)c4sc(N)c(C#N)c34)c(F)c3nc(OC[C@@]45CCCN4C[C@H](F)C5)nc(c23)N1CC(F)F [Compound 658, 2-amino-4-((5S)-8-chloro-4-(2,2-difluoroethyl)-10-fluoro-2-(((2R,7aS)-2-fluorotetrahydro-1H-pyrrolizin-7a(5H)-yl)methoxy)-5-methyl-5,6-dihydro-4H-[1,4]oxazepino[5,6,7-de]quinazolin-9-yl)-7-fluorobenzo[b]thiophene-3-carbonitrile] |
| < 100 nM | < 100 nM |  | < 100 nM | < 5000 nM | < 100 nM | N#Cc1c(N)sc2c(F)ccc(-c3c(Cl)c4c5c(nc(OC[C@@]67CCCN6C[C@H](F)C7)nc5c3F)N(C3CC35CCN(C=O)C5)CCO4)c12 (stereo partly drawn) [Compound 1091, 2-amino-4-(8-chloro-10-fluoro-2-(((2R,7aS)-2-fluorotetrahydro-1H-pyrrolizin-7a(5H)-yl)methoxy)-4-(5-formyl-5-azaspiro[2.4]heptan-1-yl)-5,6-dihydro-4H-[1,4]oxazepino[5,6,7-de]quinazolin-9-yl)-7-fluorobenzo[b]thiophene-3-carbonitrile] |
| < 100 nM | < 100 nM |  | < 100 nM | < 5000 nM | < 100 nM | N#Cc1c(N)sc2c(F)ccc(-c3c(Cl)c4c5c(nc(OC[C@@]67CCCN6C[C@H](F)C7)nc5c3F)NCCO4)c12 [Compound 1087, 2-amino-4-(8-chloro-10-fluoro-2-(((2R,7aS)-2-fluorotetrahydro-1H-pyrrolizin-7a(5H)-yl)methoxy)-5,6-dihydro-4H-[1,4]oxazepino[5,6,7-de]quinazolin-9-yl)-7-fluorobenzo[b]thiophene-3-carbonitrile] |
| < 100 nM |  | < 5000 nM | < 100 nM | < 5000 nM |  | N#Cc1c(N)sc2c(F)ccc(-c3c(Cl)c4c5c(nc(OC[C@@]67CCCN6C[C@H](F)C7)nc5c3F)N(C3CC5(C3)CC5(F)F)CCO4)c12 (stereo partly drawn) [Compound 1004, 2-amino-4-(8-chloro-4-(1,1-difluorospiro[2.3]hexan-5-yl)-10-fluoro-2-(((2R,7aS)-2-fluorotetrahydro-1H-pyrrolizin-7a(5H)-yl)methoxy)-5,6-dihydro-4H-[1,4]oxazepino[5,6,7-de]quinazolin-9-yl)-7-fluorobenzo[b]thiophene-3-carbonitrile] |
